What was measured:
barnyardgrass [1] = assay: Test A pre-/postemergence herbicide test; type: in vivo, Echinochloa crus-galli
Summary of the method: (§1)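 Seeds sown in sandy loam received a preemergence directed soil spray of compound in non-phytotoxic solvent with surfactant; postemergence plants (2–10 cm, one- to two-leaf stage) were sprayed to runoff at the same time. After ~10 days in greenhouse, injury was rated visually versus untreated controls (0 = no effect, 100 = complete control).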

large crabgrass [2] = assay: Test A pre-/postemergence herbicide test; type: in vivo, Digitaria sanguinalis
Summary of the method: as §1

giant foxtail [3] = assay: Test A pre-/postemergence herbicide test; type: in vivo, Setaria faberi
Summary of the method: as §1

morningglory [4] = assay: Test A pre-/postemergence herbicide test; type: in vivo, Ipomoea spp.
Summary of the method: as §1

redroot pigweed = assay: Test A pre-/postemergence herbicide test; type: in vivo, Amaranthus retroflexus
Summary of the method: as §1

velvetleaf [5] = assay: Test A pre-/postemergence herbicide test; type: in vivo, Abutilon theophrasti
Summary of the method: as §1

rice [6] = assay: Test B flooded paddy test; type: in vivo, Oryza sativa; settings: 1000 g ai/ha, scale 0 to 100 (0 no effect, 100 complete control)
Summary of the method: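 Treated at 2-leaf (paddy) or 1–4-leaf, 2–18 cm (postemergence); greenhouse 13–15 d; visual score vs control, 0 none to 100 complete control; dash = not tested.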

[7] = system: small flower umbrella sedge; assay: Test B flooded paddy test; type: in vivo, Cyperus difformis; settings: 1000 g ai/ha, scale 0 to 100 (0 no effect, 100 complete control)
Summary of the method: (§2)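 Postemergence plants were sprayed with formulated test chemicals at 2 to 18 cm height (1- to 4-leaf stage); paddy species were grown to the 2-leaf stage. After 13 to 15 days in a greenhouse, injury was rated visually against untreated controls on a 0–100 scale (0 = no effect, 100 = complete control).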

ducksalad [8] = assay: Test B flooded paddy test; type: in vivo, Heteranthera limosa; settings: 1000 g ai/ha, scale 0 to 100 (0 no effect, 100 complete control)
Summary of the method: as §2

barnyardgrass [9] = assay: Test B flooded paddy test; type: in vivo, Echinochloa crus-galli; settings: 1000 g ai/ha, scale 0 to 100 (0 no effect, 100 complete control)
Summary of the method: as §2

rice [10] = assay: Test C flooded paddy test; type: in vivo, Oryza sativa
Summary of the method: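 Plants were grown to the 1- to 4-leaf stage (2–18 cm) and then treated postemergence, or grown to the 2-leaf stage for the flooded paddy test. They were held in a greenhouse for 12 to 14 days and then scored by eye against controls, where 0 is no effect and 100 is complete control.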

[11] = system: smallflower umbrella sedge; assay: Test C flooded paddy test; type: in vivo, Cyperus difformis
ducksalad [12] = assay: Test C flooded paddy test; type: in vivo, Heteranthera limosa
barnyardgrass [13] = assay: Test C flooded paddy test; type: in vivo, Echinochloa crus-galli
Summary of the method: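 Scoring by eye, 12–14 days post-treatment, greenhouse-held plants vs. controls; 0 no effect, 100 complete control. Sprayed at 1–4 leaves (2–18 cm); paddy barnyardgrass at 2 leaves, flooded.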

barnyardgrass [14] = assay: Test B pre-/postemergence herbicide test; type: in vivo, Echinochloa crus-galli; settings: for Barnyardgrass plant response rating: postemergence
Summary of the method: (§3)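 Seeds were planted and treated preemergence with compounds formulated in a non-phytotoxic solvent mixture containing surfactant, while plants at the 1- to 4-leaf stage (2 to 18 cm) received postemergence sprays. Flooded paddy plants were grown to the 2-leaf stage. After 13 to 15 days in a greenhouse, injury was visually rated 0–100 against untreated controls.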

Surinam grass = assay: Test B pre-/postemergence herbicide test; type: in vivo, Urochloa decumbens; settings: for Surinam Grass plant response rating: postemergence
Summary of the method: (§4)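 Herbicidal effect was judged by eye on a 0–100 scale after plants stood 13 to 15 days in the greenhouse following pre- or postemergence treatment with surfactant-containing formulations.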

cocklebur = assay: Test B pre-/postemergence herbicide test; type: in vivo, Xanthium strumarium; settings: for Cocklebur plant response rating: postemergence
Summary of the method: as §3

corn = assay: Test B pre-/postemergence herbicide test; type: in vivo, Zea mays; settings: for Corn plant response rating: postemergence
Summary of the method: as §4

large crabgrass [15] = assay: Test B pre-/postemergence herbicide test; type: in vivo, Digitaria sanguinalis; settings: for Crabgrass, Large plant response rating: postemergence
Summary of the method: as §4

giant foxtail [16] = assay: Test B pre-/postemergence herbicide test; type: in vivo, Setaria faberi; settings: for Foxtail, Giant plant response rating: postemergence
Summary of the method: as §4

lambsquarters = assay: Test B pre-/postemergence herbicide test; type: in vivo, Chenopodium album; settings: for Lambsquarters plant response rating: postemergence
Summary of the method: as §4

morningglory [17] = assay: Test B pre-/postemergence herbicide test; type: in vivo, Ipomoea coccinea; settings: for Morningglory plant response rating: postemergence
Summary of the method: as §3

pigweed = assay: Test B pre-/postemergence herbicide test; type: in vivo, Amaranthus retroflexus; settings: for Pigweed plant response rating: postemergence
Summary of the method: as §4

velvetleaf [18] = assay: Test B pre-/postemergence herbicide test; type: in vivo, Abutilon theophrasti; settings: 100 is complete control
Summary of the method: as §4

blackgrass = assay: Test B postemergence herbicide test; type: in vivo, Alopecurus myosuroides; settings: postemergence
Summary of the method: as §2

wheat = assay: Test B postemergence herbicide test; type: in vivo, Triticum aestivum; set-up: key to Wheat plant response rating: 0 = no effect, 100 = complete control; settings: postemergence
Summary of the method: (§5)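 Scale 0–100: zero equals no visible effect, 100 complete control, judged by eye relative to controls. Timing: 13 to 15 days in greenhouse post-treatment. Growth stage at spraying: two leaves (paddy) or one to four leaves, 2–18 cm (postemergence).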

wild oat = assay: Test B postemergence herbicide test; type: in vivo, Avena fatua; settings: postemergence
Summary of the method: as §5

[19] = Postemergence, 500 g ai/ha, 0 to 100 scale, 0 no effect, 100 complete control
[20] = Postemergence, 2000 g ai/ha, 0 to 100 scale, 0 no effect, 100 complete control
[21] = Preemergence, 2000 g ai/ha, visual rating, 0 to 100 scale (0 no effect, 100 complete control)
[22] = preemergence, 500 g ai/ha, visual injury, 0 to 100 scale (0 no effect, 100 complete control)
[23] = 125 g ai/ha, scale 0 to 100 (0 no effect, 100 complete control)
[24] = 250 g ai/ha, scale of 0 to 100, 0 is no effect, 100 is complete control
[25] = 500 g ai/ha, visual rating after 12 to 14 days, scale 0 to 100 (0 no effect, 100 complete control)
[26] = 125 g ai/ha, 0 is no effect, 100 is complete control, preemergence
[27] = 125 g ai/ha, visual rating, scale 0 (no effect) to 100 (complete control)
[28] = 500 g ai/ha, visual rating, 0 = no effect, 100 = complete control, preemergence
[29] = 500 g ai/ha, scale 0 to 100, 0 is no effect, 100 is complete control

CCOC(=O)c1cncc(NC(=O)c2cc(C(C)(C)C)nn2CC)c1 [Compound 255]
0: Rice plant response rating (rice [10]; 62 g ai/ha, scale 0 to 100) | Rice plant response rating (rice [10]; [23]) | Sedge, Umbrella plant response rating ([11]; 62 g ai/ha, scale 0 to 100) | Ducksalad plant response rating (ducksalad [12]; 62 g ai/ha, scale 0 to 100) | Barnyardgrass plant response rating (barnyardgrass [13]; 62 g ai/ha, scale 0 to 100 (0 no effect, 100 complete control))
60: Foxtail, Giant plant response rating (giant foxtail [3]; [21])
80: Sedge, Umbrella plant response rating [7] | Ducksalad plant response rating (ducksalad [8])
20: Crabgrass, Large plant response rating (large crabgrass [2]; [19]) | Sedge, Umbrella plant response rating [11, 23]
45: Foxtail, Giant plant response rating (giant foxtail [3]; [22]) | Rice plant response rating (rice [10]; [24]) | Plant response rating, Sedge, Umbrella [11, 25]
10: Morningglory plant response rating (morningglory [4]; [19]) | Ducksalad plant response rating (ducksalad [12]; [23]) | Barnyardgrass plant response rating (barnyardgrass [13]; [23])
30: Foxtail, Giant plant response rating (giant foxtail [3]; [19]) | Morningglory plant response rating (morningglory [4]; [22]) | Velvetleaf plant response rating (velvetleaf [5]; [22])
25: Plant response rating, Morningglory (morningglory [4]; [20]) | Barnyardgrass plant response rating (barnyardgrass [13]; [24])
35: Crabgrass, Large plant response rating (large crabgrass [2]; [22]) | Velvetleaf plant response rating (velvetleaf [5]; [19]) | Sedge, Umbrella plant response rating [11, 24] | Ducksalad plant response rating (ducksalad [12]; [24]) | Plant response rating, Barnyardgrass (barnyardgrass [13]; [25])
70: Plant response rating, Barnyardgrass (barnyardgrass [1]; [20]) | Morningglory plant response rating (morningglory [4]; [21]) | Pigweed plant response rating (redroot pigweed; [19]) | Rice plant response rating (rice [6]) | Barnyardgrass plant response rating (barnyardgrass [9])
50: Plant response rating, Velvetleaf (velvetleaf [5]; [20]) | Velvetleaf plant response rating (velvetleaf [5]; [21]) | Plant response rating, Rice (rice [10]; [25])
100: Plant response rating, Pigweed (redroot pigweed; [20]) | Pigweed plant response rating (redroot pigweed; [21])
55: Barnyardgrass plant response rating (barnyardgrass [1]; [22]) | Crabgrass, Large plant response rating (large crabgrass [2]; [21]) | Plant response rating, Foxtail, Giant (giant foxtail [3]; [20])
40: Barnyardgrass plant response rating (barnyardgrass [1]; [19]) | Plant response rating, Crabgrass, Large (large crabgrass [2]; [20]) | Plant response rating, Ducksalad (ducksalad [12]; [25])
90: Pigweed plant response rating (redroot pigweed; [22])
75: Barnyardgrass plant response rating (barnyardgrass [1]; [21])

CCc1nn(C2CCCC2)nc1C(=O)Nc1cccc(C(=O)N2CC=CC2)c1 [Compound 354]
0: Barnyardgrass plant response rating (barnyardgrass [1]; [22]) | Plant response rating (0 to 100 scale), Barnyardgrass (barnyardgrass [14]; [26]) | Barnyardgrass plant response rating (barnyardgrass [14]; [27]) | Barnyardgrass plant response rating (barnyardgrass [14]; [29]) | Plant response rating (0 to 100 scale), Surinam Grass (Surinam grass; [26]) | Surinam Grass plant response rating (Surinam grass; [27]) | Plant response rating (0 to 100 scale), Cocklebur (cocklebur; [26]) | Plant response rating, Cocklebur (cocklebur; [28]) | Corn plant response rating (corn; [27]) | Corn plant response rating (corn; [29]) | Crabgrass, Large plant response rating (large crabgrass [15]; [27]) | Plant response rating (0 to 100 scale), Morningglory (morningglory [17]; [26]) | Plant response rating, Morningglory (morningglory [17]; [28]) | Plant response rating (0 to 100 scale), Pigweed (pigweed; [26]) | Plant response rating (0 to 100 scale), Velvetleaf (velvetleaf [18]; 125 g ai/ha, 0 is no effect, preemergence) | Wheat plant response rating (wheat; [27]) | Oat, Wild plant response rating (wild oat; [27])
40: Pigweed plant response rating (pigweed; [27]) | Barnyardgrass plant response rating (barnyardgrass [9])
15: Foxtail, Giant plant response rating (giant foxtail [3]; [22]) | Morningglory plant response rating (morningglory [4]; [22])
100: Plant response rating, Lambsquarters (lambsquarters; [28])
85: Plant response rating, Morningglory (morningglory [4]; [20])
45: Velvetleaf plant response rating (velvetleaf [5]; [21])
70: Plant response rating, Barnyardgrass (barnyardgrass [1]; [20]) | Pigweed plant response rating (redroot pigweed; [19]) | Pigweed plant response rating (redroot pigweed; [21]) | Plant response rating, Velvetleaf (velvetleaf [5]; [20]) | Plant response rating, Foxtail, Giant (giant foxtail [16]; [28])
55: Barnyardgrass plant response rating (barnyardgrass [1]; [21])
20: Barnyardgrass plant response rating (barnyardgrass [1]; [19]) | Plant response rating, Crabgrass, Large (large crabgrass [2]; [20]) | Crabgrass, Large plant response rating (large crabgrass [2]; [21]) | Morningglory plant response rating (morningglory [4]; [19]) | Morningglory plant response rating (morningglory [4]; [21]) | Plant response rating, Surinam Grass (Surinam grass; [28]) | Surinam Grass plant response rating (Surinam grass; [29]) | Cocklebur plant response rating (cocklebur; [29]) | Plant response rating (0 to 100 scale), Corn (corn; [26]) | Plant response rating, Corn (corn; [28]) | Plant response rating (0 to 100 scale), Crabgrass, Large (large crabgrass [15]; [26]) | Foxtail, Giant plant response rating (giant foxtail [16]; [29]) | Blackgrass plant response rating (blackgrass; [29]) | Wheat plant response rating (wheat; [29]) | Oat, Wild plant response rating (wild oat; [29])
90: Plant response rating, Pigweed (pigweed; [28])
30: Morningglory plant response rating (morningglory [17]; [27])
5: Velvetleaf plant response rating (velvetleaf [5]; [22])
50: Plant response rating, Foxtail, Giant (giant foxtail [3]; [20]) | Velvetleaf plant response rating (velvetleaf [5]; [19]) | Lambsquarters plant response rating (lambsquarters; [29]) | Pigweed plant response rating (pigweed; [29]) | Rice plant response rating (rice [6]) | Sedge, Umbrella plant response rating [7] | Ducksalad plant response rating (ducksalad [8])
60: Pigweed plant response rating (redroot pigweed; [22]) | Plant response rating, Barnyardgrass (barnyardgrass [14]; [28]) | Morningglory plant response rating (morningglory [17]; [29])
10: Crabgrass, Large plant response rating (large crabgrass [2]; [19]) | Crabgrass, Large plant response rating (large crabgrass [2]; [22]) | Foxtail, Giant plant response rating (giant foxtail [3]; [19]) | Cocklebur plant response rating (cocklebur; [27]) | Crabgrass, Large plant response rating (large crabgrass [15]; [29]) | Plant response rating (0 to 100 scale), Foxtail, Giant (giant foxtail [16]; [26]) | Foxtail, Giant plant response rating (giant foxtail [16]; [27]) | Lambsquarters plant response rating (lambsquarters; [27]) | Velvetleaf plant response rating (velvetleaf [18]; postemergence, 500 g ai/ha, scale 0 to 100, 0 is no effect) | Blackgrass plant response rating (blackgrass; [27])
80: Foxtail, Giant plant response rating (giant foxtail [3]; [21]) | Plant response rating, Pigweed (redroot pigweed; [20]) | Plant response rating, Crabgrass, Large (large crabgrass [15]; [28])

— patent publication US20060069132A1, “Azolecarboxamide herbicides” (priority 2004, published 2006)
